Patent publication US11285180B2, “Methods of enhancing the potency of incretin-based drugs in subjects in need thereof” (INSERM (INSTITUT NATIONAL DE LA SANTE ET DE LA RECHERCHE …, priority 2016, dated 2022)

Experiments:
[1] = system: primary enteric neurons; test: GLP-1-induced NO production in primary cultures of enteric neurons (DAF-FM); assay type: cell-based, mice
Description: The protocol was adapted from Smith and colleagues (Smith et al., 2013). The ileum (last 9 cm) was harvested and kept in ice cold-carbogen bubbled-Krebs solution. The tissue was cut into 3 cm slices and kept on plastic rod. An incision was realized with a forceps where the mesentery was attached. The outer layers containing muscular cells and myenteric neurons (LMMP) were obtained by moving from top to bottom, along the gap. The LMMP were digested with collagenase II (1.3 mg/mL, Worthington) and BSA (0.3 mg/mL) in Krebs solution bubbled with carbogen 30 min in a 37° C. shaking bath. Digested cells were transferred in Hank Balanced salt Solution (HBSS)/trypsin solution (0.05%) 7 min in a 37° C. shaking bath. […]
Primary enteric neurons were grown for 7 days in culture. […] The fluorescence was measured on confocal Zeiss Laser Scanning Microscope LSM-780 equipped with 63×/1.4 NA oil immersion objective and a GaAsP detector with quantum yield of 45% with Black Zen software and analysed with Image J software. A region of interest (ROI) corresponding to identified nNOS positive cells was defined from where the DAF-FM or nNOS fluorescence mean per ROI was measured. The ratio of both values for each ROI was then calculated.

[2] = system: cFos positive cells in the brain stem (NTS-DMNX); test: c-FOS immunostaining in the brain stem after GLP-1; assay type: in vivo, mice
Description: Brain was removed and kept on PFA 4% overnight at 4° C. After washing in cold citrate buffer for 6 h, brain was warmed until boiling, washed in PBS, cooled to 4° C., then immersed in cold sucrose solutions (10% then 30% in PBS). After freezing on dry ice, the brain was stored at −80° C. and cut into 20 μm thick slices (cryostat, Thermo). The slices were washed 3 times with PBS, blocked with PBS, 0.3% Triton X100, 2% donkey serum and incubated with the c-fos antibody diluted in the same solution ( 1/10000, Santa Cruz) overnight at RT. After 16 h, the brain slices were washed 3 times with PBS and incubated with biotinylated antibody ( 1/2000, Jackson ImmunoResearch) diluted in the PBST solution (PBS, 0.3% Triton X100) for 1 h at RT. Brain slices were washed 3 times in PBS and incubated with the reagent A (avidin) and B (biotinylated enzyme) from Vectastain Elite ABC kit (Vector Laboratories) diluted in the PBST solution, 30 min at RT. Then, brain slices were washed 3 times in PBS and incubated with biotinylated tyramine solution (tyramine and biotin diluted in borate buffer/3% H2O2, pH=8.4), 20 min at RT. […] The fluorescence was analysed as above. We identified the Nucleus Tractus Solitary NTS and dorsal motor nucleus of vagus nerve DMNX area using a mouse brain atlas (Franklin and Paxinos, 1997) and we counted the number of cFOS positive cells/area corresponding to the NTS-DMNX.

[3] = system: food intake; test: GLP-1 regulated food intake (30 min after 16-hour fast); assay type: in vivo, mice
Description: (§1) To evaluate GLP-1 sensitivity three GLP-1 regulated parameters were quantified: insulin secretion, gastric emptying, and food intake. To prevent from the degradation of exogenous GLP-1 a DPP4 inhibitor (400 μg/mouse sitagliptin) was given orally 30 min before the GLP-1 challenge.
Food intake was recorded for 30 min following a 16-hour period of fast.
(§2) Thirty minutes before all 3 GLP-1 challenge procedures, a NO synthase (NOS) inhibitor (L-NAME, Abcam) was administered i.p. at doses of 0, 50, 100, 200 μg/kg. In a different set of mice, a NO donor (L-Arginine, 1 g/kg, Sigma-Aldrich) was administered orally in the presence or absence of the GLP-1r antagonist, Exendin 9 (1 nmol/mice, 100 μL, i.p. injection, Bachem). To study the chronic effect of L-arginine in GLP-1 sensitivity, the molecule (0.5 g/kg, 300 μL, lgavage/day) was administered for one week.

[4] = system: distal ileum segment; test: Ex vivo ileal real-time NO measurement; design: species or system mice
Description: The distal ileum segment from fed mice were washed in Krebs-Ringer bicarbonate/glucose buffer (pH 7.4) in an atmosphere containing 95% O2—5% CO2 and then immersed in Eppendorf tubes containing 400 μL of the same medium. After a 10 min recovery period, the spontaneous NO release in response to 10 μL of Krebs-Ringer solution (control), GLP-1 (150 nM) and/or Exendin 9 (375 nM) was measured at 37° C. for 10 min using a NO-specific amperometric probe (ISO-NOPF, […], 5 mm length, World Precision Instruments, Aston Stevenage, UK) implanted directly in the ileum. Data are expressed (Fournel et al., 2015).

[5] = system: GLP-1-induced insulin secretion; test: In vivo GLP-1 stimulated insulin secretion (i.p. GLP-1, then i.v. glucose challenge); design: species or system mice
Description: as §1
Since GLP-1 insulinotropic effect is glucose dependent we first assessed in vivo GLP-1 stimulated insulin secretion in hyperglycemic conditions. The mice were first fasted for 6 h before the GLP-1 and glucose challenges. Active GLP-17-36 (BACHEM, Switzerland) was then administered intraperitoneally at different doses (0, 2.2, 7, 20, 63 nmol/kg, diluted in distilled water) 5 min before the glucose challenge. In some sets of experiments a single active dose of 7 nmol/kg was tested. To induce hyperglycemic conditions a retrorbital i.v. glucose (1 g/kg) injection was realised. This procedure avoids the confounding effect of the oral glucose-induced gut-secreted GLP-1. Blood (30 μl) was collected from the tail vein 15 min after glucose challenge. Plasma insulin concentration was determined.
The dose-response curve was calculated by curve interpolation with 4-Parameter Logistic (4PL) sigmoidal model using GraphPad Prism version 6.00 for Mac (GraphPad Software, San Diego, Calif., USA; www.graphpad.com) and the ECso calculated.
as §2

[6] = system: gastric emptying; test: GLP-1 regulated gastric emptying (oral acetaminophen, plasma acetaminophen); assay type: in vivo, mice
Description: as §1
For gastric emptying the glucose challenge was replaced by an oral administration of acetaminophen (SIGMA-Aldrich, […]). The plasma acetaminophen concentrations were assessed by colorimetric-based assay (SEKISUI diagnostics, Canada) in the plasma from tail blood during 15 min.
as §2

[7] = system: insulin secretion; test: Oral glucose-induced insulin secretion after oral NO donor; assay type: in vivo, mice
Description: To identify oral glucose-induced insulin and GLP-1 secretions, all sets of mice were gavaged with glucose (2 g/kg). After 15 min, 30 μl of blood from the tip of the tail vein were sampled to assess plasma insulin concentration. 300 μl of portal vein blood were collected following an intravenous (i.v.) administration of a Ketamin (10 mg/kg)/Xylasin (1 mg/kg), to ensure an immediate anesthesia of the mice. This procedure allows performing portal vein blood sampling since it dramatically minimizes the impact of anesthesia on blood parameters. In addition, to prevent from the in vivo degradation of GLP-1 by DPP4, a DPP4 inhibitor (400 μg/mouse sitagliptin, MSD Rahway, N.J.) was administered orally 30 min before the oral gavage with glucose. Eventually, the portal blood was collected in the presence of protease inhibitors diprotin A (1 mM), aprotinin (0.2 μM) and EDTA (1 mM). Plasma hormones were assessed by ELISA (insulin, Mercodia; active GLP-17-36, Alpco). A GLP-1 resistance index for each mice was calculated from glucose, insulin and GLP-1 concentrations 15 min after the oral glucose load. Since the insulinotropic activity of GLP-1 depends upon the glycemic level we set the following equation: Glucose x GLP-1 concentrations/insulin concentration. In some experiments, distal ileum and left nodose ganglion were harvested from mice.
as §2

[8] = system: meal-induced insulin secretion; details: administered orally; healthy, type II diabetic patients, and diabetic mice; cited from earlier work
[9] = L-NAME i.p. 30 min before GLP-1 challenge

With “GLP-1: Active GLP-1 7-36 (BACHEM), insulinotropic hormone, GLP-1 receptor agonist” the “GLP-1-induced NO production” value ([1]; enteric neurons from HFD-fed mice versus NCD) was “dramatically resistant”, the “NO production by enteric neurons stimulated by GLP-1” value ([1]; enteric neurons from germ free mice) was “could not be stimulated” and the “number of cFos positive neurons in response to GLP-1” value ([2]; NCD mice, GLP-1 7 nmol/kg) was “increases”. For the same compound, the “number of cFos positive cells in the brain stem after GLP-1 administration” value ([2]; germ free mice) was “could not be increased”, the “energy intake with increasing doses of GLP-1” value ([3]; HFD-fed lean diabetic mice compared to NCD-fed mice) was “only modestly reduced” and the food intake ([3]; NOD2, CD14 and TLR4 KO mice) was “remained unchanged”. For the same compound, the “energy intake after GLP-1 administration” value ([3]; sham versus SDVx-operated mice) was “similar”, the “GLP-1-induced NO production ex vivo from ileum segments” value ([4]; HFD-fed GLP-1 resistant mice) was “totally blunted” and the “GLP-1-induced NO production ex vivo from ileum segments” value ([4]; NCD versus HC-HFD-fed GLP-1 sensitive mice) was “similar”. The “EC50 of GLP-1-induced insulin secretion (fold change dose-response)” value ([5]; HC-HFD mice compared to NCD mice) was “doubled”, the “EC50 of GLP-1-induced insulin secretion (fold change dose-response)” value ([5]; HFD-fed lean diabetic mice compared to NCD mice) was “dramatically increased” and the “dose of GLP-1 reaching the maximal insulin secretion” value ([5]; NCD and HC-HFD-fed mice, GLP-1 i.p., plasma insulin 15 min after i.v. glucose) was 7 nmol/kg. The GLP-1-induced insulin secretion ([5]; NCD-fed subdiaphragmatic vagotomy (SDVx) mice, GLP-1 7 nmol/kg) was “reduced”, the GLP-1-induced insulin secretion ([5]; NOD2, CD14 and TLR4 KO mice compared to wild type controls) was “dramatically reduced” and the GLP-1-induced insulin secretion ([5]; germ free mice) was “prevented”. For the same compound, the gastric emptying ([6]; NOD2, CD14 and TLR4 KO mice) was “impaired”, the “GLP-1 effect on gastric emptying” value ([6]; SDVx-operated NCD-fed mice) was “induces GLP-1 resistance to gastric emptying” and the “plasma concentrations of acetaminophen after GLP-1 administration (gastric emptying)” value ([6]; both fat-enriched diet-fed mice (HC-HFD, HFD)) was “remained elevated”.
With `N=C(N)NCCC[C@H](N)C(=O)O` [L-Arginine] the insulin secretion ([7]; HFD GLP-1 resistant diabetic mice, oral and acute administration) was “improved insulin secretion”, the “insulin secretion after oral glucose challenge” value ([7]; NCD-fed mice, oral and acute treatment) was “induced insulin secretion” and the “GLP-1-induced insulin secretion (GLP-1 sensitivity)” value ([5]; HFD diabetic mice, chronic NO-donor treatment (1 week)) was “enhanced”. For the same compound, the gastric emptying ([6]; HFD diabetic mice, NO-donor treatment) was “could also improve”, the gastric emptying inhibition ([6]; oral NO donor, through the GLP-1r) was “can induce gastric emptying inhibition” and the meal-induced insulin secretion [8] was “improves”.
For Exendin 9, the “effect of co-treatment on L-Arginine-increased insulin secretion” value ([7]; NCD-fed mice, co-treatment with L-Arginine) was “prevented the effect of GLP-1” and the “effect on GLP-1 induced NO production” value ([4]; ileum segments, Exendin 9 with GLP-1) was “prevented GLP-1 induced NO production”.
In the case of `COC(=O)[C@@H](N)CCCNC(=N)N[N+](=O)[O-]` [L-NAME], the “effect on GLP-1-induced food intake inhibition” value [3, 9] is reported as “but not GLP-1-induced food intake inhibition”, the “effect on GLP-1-induced insulin secretion” value ([5]; NCD mice, L-NAME i.p. 30 min before GLP-1 challenge) is reported as “partially reduced” and the “effect on GLP-1-induced gastric emptying inhibition” value [6, 9] is reported as “altered”.
